Source: patent publication US20240033257A1, “USE OF PPAR-DELTA INHIBITOR IN COMBINATION WITH IMMUNOTHERAPEUTIC DRUG FOR PREPARING ANTI-TUMOR DRUG” (THE FIRST HOSPITAL OF JILIN UNIVERSITY, priority 2021, published 2024)

Columns and labels:
[1] = tested on: lymphocytes in draining lymph nodes; test: Lymphocyte subpopulations in draining lymph nodes of B16 tumor-bearing mice (flow cytometry, cell counting); type: in vivo, mouse
Description: The C57BL/6 B16 tumor-bearing mouse model (mice subcutaneously inoculated with 7×10^5 B16 cells, 8 days after inoculation of tumor cells, mice with tumors touchable) of Example 1 was used. The experiment included the treatment group of low-dose FGK45.5, the treatment group of low-dose FGK45.5 in combination with the PPARδ inhibitor, the treatment group of using the PPARδ inhibitor solely, and the isotype control Rat IgG treatment group. 24 hours after the last injection of GSK3787 (i.e., 72 hours after the last FGK45.5 injection), the mice of all group were sacrificed. Cells at lymph nodes of mice from all groups were sampled for flow cytometry assays and cell counting.

[2] = tested on: B cells from draining lymph nodes; test: Inhibition of CFSE-labelled CD4+ T cell proliferation by B cells from draining lymph nodes of treated tumor-bearing mice; type: cell-based, mouse; details: B cells:T cells 1:1, co-cultured 72 hours; FIG. 5a
Description: The next point was to verify whether the PPARδ inhibitor enhances immunotherapy through affecting B cells. First, the ability of B cells in draining lymph nodes of tumor-bearing mice treated differently to inhibit proliferation of activated T cells was examined in vitro. Purified C D4^+ T cells from normal mice were labelled using 2.5 μM CFSE in vitro. The CFSE-labelled cells were then resuspended in complete RPMI 1640 culture medium at 1×10^6/ml, and transferred into a 96-well plate that had been coated with 10 μg/ml anti-CD3ε antibody at 4° C. overnight. B cells purified from draining lymph nodes and the foregoing T cells (1:1) were co-cultured for 72 hours in the foregoing 96-well plate containing 1 μg/ml anti-CD28 mAb, and a flow cytometry assay was conducted. The cell proliferation rate of the CFSE-labelled T cells was calculated using the equation: (1-MFI value of CFSE of T Cells in Experimental Group/MFI value of CFSE of B-cell-free T Cells in Control Group)×100%. MFI refers to the mean fluorescence intensity.

[3] = tested on: MB49 cells (mouse bladder cancer cells); test: MB49 bladder cancer tumor-bearing mouse model, tumor growth; type: in vivo; details: doses and regimens of FIG. 2a; FIG. 9
Excerpt: From the results above, we anticipate that the PPARδ inhibitor could also enhance therapeutic effects of immunotherapeutic drug on tumors in other tumor models. In order to verify such possibility, we examined the therapeutic effects of the PPARδ inhibitor in combination with FGK45.5 on MB49 bladder cancer cell tumor-bearing mice. C57BL/6 mice (8 to 10 weeks, n=5/group, 4 groups) are subcutaneously inoculated with 7×10^5 MB49 cells (mouse bladder cancer cells) and about 8 days after inoculation of tumor cells when tumors became touchable, Rat IgG, or FGK45.5, or PPARδ inhibitor (GSK3787), or FGK45.5 in combination with PPARδ inhibitor (GSK3787) was administered. Tumor growth condition was monitored.

[4] = tested on: B16 tumor cells (mouse melanoma cells); test: B16 melanoma tumor-bearing mouse model, tumor growth; type: in vivo; details: low-dose FGK45.5 (75 μg in total); inhibitors intraperitoneal once a day Day 7 to Day 16; FIG. 2a
Description: We used a mouse B16 melanoma model extensively used in researches and having relatively high immunogenicity (C57BL/6 B16 Tumor-Bearing Mouse Model): C57BL/6 mice (8-10-week-old, n=5/group) were subcutaneously inoculated with 7×10^5 B16 tumor cells (mouse melanoma cells), and about 8 days after inoculation of tumor cells when tumors became touchable, anti-CD40 agonistic antibody was administered.
The mice were monitored every day, and tumors were measured with calipers every four days. The tumors were measured for length (a) and width (b), and tumor volume=ab^2/2.
Dosage regimen: These tumor-bearing mice were treated using low-dose 25 μg of FGK45.5 (mouse anti-CD40 agonistic antibody) for three times, 75 μg in total (at Day 8, Day 11, and Day 14) or high-dose 40 μg for 5 times, 200 μg in total (at Day 8, Day 11, Day 14, Day 17, and Day 20) or 40 μg with Isotype Control Rat IgG for 5 times (at Day 8, Day 11, Day 14, Day 17, and Day 20). Subcutaneous injection was made between the tumor and the draining lymph node at the groin. 72 hours after the last injection of each group, samples of mouse blood serum were tested for alanine transaminase (ALT, a known indicator of liver tissue injury).
The establishment of the B16 melanoma tumor-bearing mouse model and the dosage regimens of low-dose and high-dose FGK45.5 followed Example 1. […]

[5] = tested on: CD19+CD24hiIgDlo/− B cells; test: Co-culture of sorted B cell subpopulations from treated mice with CFSE-labelled CD4+ T cells; type: cell-based, mouse; details: B cells:T cells 1:1, 72 hours; FIG. 8a
Description: For evaluating the function-regulating effects on CD19^+CD24^hiIgD^lo/− B cells, the experimental scheme of Example 4 was employed. 24 hours after the last GSK3787 injection (i.e., 72 hours after the last FGK45.5 injection), mice of all groups were sacrificed. CD19^+CD24^hiIgD^lo/− B cell population and CD19^+CD24^loIgD^hiB cell population were isolated form draining lymph nodes of differently treated tumor-bearing mice using flow cytometry. Purified CD4^+ T cells from normal mice were labelled with 2.5 μM CFSE in vitro. The CFSE-labelled cells were resuspended in complete RPMI 1640 culture medium at 1×10^6/ml, and transferred into a 96-well plate coated with 10 μg/ml anti-CD3E antibody at 4° C. overnight. The B cells purified from draining lymph nodes and the foregoing T cells (1:1) were co-cultured for 72 hours in the foregoing 96-well plate containing 1 μg/ml anti-CD28 mAb for use in flow cytometry assays. The proliferation of the CFSE-labelled T cells was calculated using the equation: (1-MFI value of CFSE of T Cells in Experimental Group/MFI value of CFSE of B-cell-free T Cells in Control Group)[…].

[6] = tested on: CD19+CD24hiIgDlo/− B cells; test: Surface marker, PPARδ and Ki67 flow cytometry of B cell subpopulations in draining lymph nodes; type: in vivo, mouse
Description: For verifying this assumption, the experimental scheme of Example 4 was used. The mice of all groups were sacrificed at the 24th hour after the last injection of GSK3787 (i.e., the 72nd hour after the last FGK45.5 injection), and various surface marker analyses were conducted on the B cells isolated from lymph nodes of tumor-bearing mice to identify surface markers of B cell subpopulations having immunosuppressive effects and the effects of different treatments on B cell subpopulations having immunosuppressive effects.
At the 24th hour after the last GSK3787 injection, tumor draining lymph nodes of differently treated mice were sampled. The lymph nodes at the same body portion in natural, tumor-free mice were also sampled as the control group. The lymph nodes were ground into single-cell suspension. Cells from different lymph nodes were stained using various fluorescence labeling antibodies for flow cytometry assays.

[7] = tested on: B16 tumor; test: CD19+ B cell eradication experiment in B16 tumor-bearing mice, tumor growth; type: in vivo, mouse; details: 250 μg anti-CD19 antibody (clone 1d3) intraperitoneal at day 6, 7 and 15; low-dose FGK45.5; FIG. 5b
Description: To some of the B16 tumor-bearing mice, the anti-CD19 antibody was used first to kill B cells, and then Rat IgG or FGK45.5 or FGK45.5 combined with the PPARδ inhibitor (GSK3787) was administered for treatment. Growth of the tumors was observed. Treatment with Rat IgG, FGK45.5, and FGK45.5 in combination with the PPARδ inhibitor were taken as control groups.
CD19^+ B cell Eradication Experiment: At the 6th day, 7th day, and 15th day after inoculation of B16 cells, 250 μg anti-CD19 antibody (clone 1d3) was administered to tumor-bearing mice through intraperitoneal injection, and the eradication rate of B cells as measured using FACS should be 90% or more.

[8] = tested on: human CD19+CD24hiIgDlo/− B cells; test: Suppression of T cell IFNγ secretion by human CD19+CD24hiIgDlo/− B cells cultured with GSK3787; type: cell-based; details: cultured 24 hours with GSK3787
Description: B cells were isolated and gathered from the peripheral blood of multiple normal blood donors or patients, and CD19^+CD24^hiIgD^lo/− B cells were isolated from the gathered B cells and cultured for 24 hours in complete RPMI 1640 culture medium with or without the PPARδ inhibitor GSK3787. Then these B cells were washed twice to remove the PPARδ inhibitor, resuspended in complete RPMI 1640 culture medium at 1×10^6/ml. CD4^+CD25^− T cells were isolated from blood of normal blood donors. The treated CD19^+CD24^hiIgD^lo/− B cells and these T cells (1:1) were co-cultured for 48 hours, Dynabeads were coated with anti-human CD3 mAb and anti-human CD28 mAb and placed on a 96-well U-shaped culture plate. Golgi^plug (BD Biosciences), PMA and ionomycin were added into the culture medium together for 6 hours. CD4^+ T cells were surface stained, perforated in the cytomembrane, and stained intracellularly using fluorescence labelled anti-human IFNγ, then analyzed using flow cytometry.

In the case of `O=C(NCCS(=O)(=O)c1ccc(C(F)(F)F)cn1)c1ccc(Cl)cc1` [GSK3787], the “proportions of CD4/CD19 cells in draining lymph nodes” value ([1]; FIG. 4c) is reported as “basically comparable”, the “absolute count of CD45+ cells in draining lymph nodes” value ([1]; low-dose FGK45.5, 24 hours after last GSK3787 injection, FIG. 4a) is reported as “did not change” and the “absolute count and proportion of CD11c+ cells in draining lymph nodes” value ([1]; low-dose FGK45.5, FIG. 4b) is reported as “basically the same”. The “cell counts of CD4+ T and CD8+ T cells and their proportions in CD45+ cells in draining lymph nodes” value ([1]; low-dose FGK45.5, FIG. 4b) was “consistent”, the “inhibition of CD4 T cell proliferation by B cells from draining lymph nodes of treated tumor-bearing mice” value [2] was “decreased inhibition” and the “therapeutic effects on MB49 tumors, GSK3787 in combination with FGK45.5” value [3] was “could further improve the effect of FGK45.5”. For the same compound, the “therapeutic effects on MB49 tumors, used solely” value [3] was “no therapeutic effects”, the “anti-tumor effects (speed of tumor growth)” value [4] was “almost no anti-tumor effects” and the “suppressive effects of CD19+CD24hiIgDlo/− B cells from draining lymph nodes of tumor-bearing mice on proliferation of activated CD4+ T cells” value [5] was “reduced suppressive effects”. The “proportion of the CD19+CD24hiIgDlo/− B cell subpopulation in draining lymph nodes” value ([6]; B16 tumor-bearing mice, 24th hour after last GSK3787 injection, FIGS. 7a, b) was “decreased significantly”, the “Ki67 expression of CD19+CD24hiIgDlo/− B cells” value ([6]; FIG. 7e, f) was “reduced increase in Ki67 expression” and the “therapeutic effects on B16 tumors with B cells eradicated” value [7] was “lost its function of enhancing anti-tumor effects of FGK45.5”. For the same compound, the “suppressive activity of human CD19+CD24hiIgDlo/− B cells (IFNγ secretion of activated T cells)” value ([8]; B cells of cancer patients (NSCLC)) was “significantly reduced” and the “suppressive activity of human CD19+CD24hiIgDlo/− B cells (IFNγ secretion of activated T cells)” value ([8]; B cells of healthy subjects) was “significantly reduced”.
For `O=C(Nc1ccncc1)c1cc([N+](=O)[O-])ccc1Cl` [T0070907], the “anti-tumor effects (speed of tumor growth)” value [4] was “almost no anti-tumor effects”.
